The record followed here is patent US12583861B2, “Derivatives of imidazo[4,5-d]pyridazine, their preparation and their therapeutic application” (SANOFI, priority 2021, dated 2026).

Counter-ions that a name gives are not always drawn.

One experiment concerns the target T1, human TLR8 (Homo sapiens, UniProt Q9NR97).
T1 construct: host or cells: HEK293 (HEK-Blue hTLR8)
T1 sequence (Q9NR97 27-1041): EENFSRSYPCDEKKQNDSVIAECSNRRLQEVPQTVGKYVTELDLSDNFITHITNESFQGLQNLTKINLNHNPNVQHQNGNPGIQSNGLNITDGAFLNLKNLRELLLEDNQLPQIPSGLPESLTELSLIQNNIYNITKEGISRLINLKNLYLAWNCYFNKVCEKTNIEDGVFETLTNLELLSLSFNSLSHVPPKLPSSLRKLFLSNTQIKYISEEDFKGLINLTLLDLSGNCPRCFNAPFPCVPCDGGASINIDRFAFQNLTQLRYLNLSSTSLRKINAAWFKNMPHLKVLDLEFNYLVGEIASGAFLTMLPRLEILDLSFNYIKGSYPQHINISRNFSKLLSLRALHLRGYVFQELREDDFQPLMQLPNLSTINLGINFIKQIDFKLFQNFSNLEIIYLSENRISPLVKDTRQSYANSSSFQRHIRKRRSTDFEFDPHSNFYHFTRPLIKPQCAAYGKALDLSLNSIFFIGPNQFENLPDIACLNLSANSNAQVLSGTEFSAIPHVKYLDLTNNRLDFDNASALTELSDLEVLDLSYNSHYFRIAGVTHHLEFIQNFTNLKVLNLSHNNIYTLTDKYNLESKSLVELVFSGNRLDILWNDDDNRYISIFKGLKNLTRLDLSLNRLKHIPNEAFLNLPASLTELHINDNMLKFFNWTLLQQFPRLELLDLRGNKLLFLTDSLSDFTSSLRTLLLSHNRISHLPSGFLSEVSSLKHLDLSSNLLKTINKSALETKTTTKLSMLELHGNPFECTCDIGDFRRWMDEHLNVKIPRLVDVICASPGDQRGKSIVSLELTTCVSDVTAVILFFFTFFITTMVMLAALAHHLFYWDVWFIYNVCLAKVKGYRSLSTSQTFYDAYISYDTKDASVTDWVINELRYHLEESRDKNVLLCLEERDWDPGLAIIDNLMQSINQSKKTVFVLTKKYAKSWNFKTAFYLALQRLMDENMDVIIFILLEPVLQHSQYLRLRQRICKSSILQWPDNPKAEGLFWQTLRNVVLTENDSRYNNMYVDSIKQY
Description: HEK-Blue hTLR8 reporter cell assay (SEAP, NF-kB/AP-1) for stimulation of human TLR8. The format is cell-based. The settings on record: HEK-Blue hTLR8 cells; for EC50: 24 h incubation, SEAP readout, read-out: TLR8_EC50; for activation at 20 µM: 24 h, at 20000 nM. A digest of the protocol: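 HEK293 cells carrying hTLR8 and a SEAP reporter driven by NF-κB/AP-1 sites were seeded at 3.10E4 cells/well and held 18 to 24 h at 37° C., 5% CO2 before compound addition. Supernatant SEAP measured with QUANTI-Blue™.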

A further experiment addresses T2, human TLR7 (Homo sapiens, UniProt Q9NYK1).
T2 construct: host or cells: HEK293 (HEK-Blue hTLR7)
T2 sequence (Q9NYK1 27-1049): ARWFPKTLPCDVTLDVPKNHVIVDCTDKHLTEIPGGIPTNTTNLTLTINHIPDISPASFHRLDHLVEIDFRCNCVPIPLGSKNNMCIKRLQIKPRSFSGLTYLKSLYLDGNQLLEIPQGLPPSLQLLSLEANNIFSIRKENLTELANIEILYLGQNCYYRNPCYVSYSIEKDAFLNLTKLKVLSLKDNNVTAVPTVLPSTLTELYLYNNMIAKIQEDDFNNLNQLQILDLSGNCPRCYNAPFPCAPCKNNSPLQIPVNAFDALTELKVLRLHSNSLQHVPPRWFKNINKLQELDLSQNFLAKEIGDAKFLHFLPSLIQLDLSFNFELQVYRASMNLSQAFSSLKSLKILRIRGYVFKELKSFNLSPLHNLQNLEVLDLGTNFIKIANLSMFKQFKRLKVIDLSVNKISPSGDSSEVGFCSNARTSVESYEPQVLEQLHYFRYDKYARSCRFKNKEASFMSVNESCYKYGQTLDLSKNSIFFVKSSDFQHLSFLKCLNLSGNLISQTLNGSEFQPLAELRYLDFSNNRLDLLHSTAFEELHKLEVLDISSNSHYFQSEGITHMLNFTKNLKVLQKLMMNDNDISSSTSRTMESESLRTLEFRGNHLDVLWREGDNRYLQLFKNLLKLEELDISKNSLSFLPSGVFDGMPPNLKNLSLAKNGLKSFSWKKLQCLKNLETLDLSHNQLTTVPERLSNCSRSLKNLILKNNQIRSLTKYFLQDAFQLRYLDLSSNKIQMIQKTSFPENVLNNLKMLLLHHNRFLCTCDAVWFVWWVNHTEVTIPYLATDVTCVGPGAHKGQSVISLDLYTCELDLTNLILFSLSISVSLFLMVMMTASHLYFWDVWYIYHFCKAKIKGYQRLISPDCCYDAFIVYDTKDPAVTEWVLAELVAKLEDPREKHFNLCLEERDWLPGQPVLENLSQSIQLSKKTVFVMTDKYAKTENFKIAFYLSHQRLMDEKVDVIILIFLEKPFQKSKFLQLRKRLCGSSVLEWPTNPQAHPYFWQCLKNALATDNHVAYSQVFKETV
Description: HEK-Blue hTLR7 reporter cell assay (SEAP, NF-kB/AP-1) for stimulation of human TLR7. Type of experiment: cell-based. Conditions: HEK-Blue hTLR7 cells; for EC50: 24 h incubation, SEAP readout, read-out: TLR7_EC50; for activation at 20 µM: 24 h, at 20000 nM. The essentials:
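HEK293 cells expressing hTLR7 with NF-κB/AP-1-driven SEAP reporter, seeded 3.10E4 cells/well, pre-incubated 18–24 h, then exposed to 3-fold compound dilutions (0.01–20 μM) for 24 h at 37 °C. Supernatant SEAP read with QUANTI-Blue; EC50 as concentration giving 50% activation.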

`CCCCc1nc2c(N)nnc(OC(C)C)c2n1CCCCNC1CS(=O)(=O)C1` [Compound 152, 2-butyl-3-[4-[(1,1-dioxothietan-3-yl)amino]butyl]-4-isopropoxy-imidazo[4,5-d]pyridazin-7-amine]: the EC50 on human TLR8 is over 20000 nM; on human TLR7, 4390 nM.
The corresponding values for `CCCCc1nc2c(N)nnc(OC3CCOCC3)c2n1Cc1ccc(OC)cc1` [Compound 57, 2-butyl-1-(4-methoxybenzyl)-7-((tetrahydro-2H-pyran-4-yl)oxy)-1H-imidazo[4,5-d]pyridazin-4-amine] are over 20000 nM and 344 nM.
Taken in the same sequence, the figures for `CCCCc1nc2c(N)nnc(OC(C)C)c2n1Cc1cccc(CNC2CC2)c1` [Compound 127, 2-butyl-1-(3-((cyclopropylamino)methyl)benzyl)-7-isopropoxy-1H-imidazo[4,5-d]pyridazin-4-amine dihydrochloride salt] were 179 nM and 93 nM.
The corresponding values for `CCCCc1nc2c(N)nnc(OC(C)C)c2n1Cc1ccc(CNCCOCCOCCOCCOCCOCCOCCOCCOC)cc1` [Compound 122, 2-butyl-4-isopropoxy-3-[[4-[[2-[2-[2-[2-[2-[2-[2-(2-methoxyethoxy)ethoxy]ethoxy]ethoxy]ethoxy]ethoxy]ethoxy]ethylamino]methyl]phenyl]methyl]imidazo[4,5-d]pyridazin-7-amine di2,2,2-trifluoroacetate] are over 20000 nM and 729 nM.
Turning to `CCCCc1nc2c(N)nnc(-c3cccs3)c2n1Cc1ccc(OC)cc1` [Compound 63, 2-butyl-1-(4-methoxybenzyl)-7-(thiophen-2-yl)-1H-imidazo[4,5-d]pyridazin-4-amine], the EC50 at human TLR8 was over 20000 nM; on human TLR7, 1180 nM.
The corresponding values for `CCCCc1nc2c(N)nnc(OC(C)C)c2n1C` [Compound 86, 2-butyl-7-isopropoxy-1-methyl-1H-imidazo[4,5-d]pyridazin-4-amine] are 6960 nM and 4400 nM.
Take `CCCCc1nc2c(N)nnc(OC(C)C)c2n1Cc1ccc(CN)cn1` [Compound 26, 1-((5-(aminomethyl)pyridin-2-yl)methyl)-2-butyl-7-isopropoxy-1H-imidazo[4,5-d]pyridazin-4-amine]: the EC50 on human TLR8 was over 20000 nM; at human TLR7 it was 144 nM.
For `CCCCc1nc2c(N)nnc(N(C)Cc3ccc(CN)cc3)c2n1C` [Compound 46, N7-(4-(aminomethyl)benzyl)-2-butyl-N7,1-dimethyl-1H-imidazo[4,5-d]pyridazine-4,7-diamine], the EC50 stood at 4070 nM on human TLR8 and 6140 nM on human TLR7.
Consider `CCCCc1nc2c(N)nnc(-c3cc[nH]c3)c2n1C[C@H]1CC[C@H](N)CC1` [Compound 141, 1-(((1R,4R)-4-aminocyclohexyl)methyl)-2-butyl-7-(1H-pyrrol-3-yl)-1H-imidazo[4,5-d]pyridazin-4-amine], for which the activation at 20 µM on human TLR8 worked out at 19.6%; at human TLR7, 26.8%.
As to `CCCCc1nc2c(N)nnc(OC3CCSC3)c2n1Cc1ccc(OC)cc1` (stereo not shown) [Compound 58, 2-butyl-1-(4-methoxybenzyl)-7-((tetrahydrothiophen-3-yl)oxy)-1H-imidazo[4,5-d]pyridazin-4-amine], the EC50 on human TLR8 was over 20000 nM; at human TLR7, 433 nM.
Turning to `CCCCc1nc2c(N)nnc(Oc3ccccc3)c2n1Cc1ccc(OC)cc1` [Compound 72, 2-butyl-1-(4-methoxybenzyl)-7-phenoxy-1H-imidazo[4,5-d]pyridazin-4-amine], the EC50 at human TLR8 is over 20000 nM; on human TLR7 it was 3760 nM.
The corresponding values for `CCCCc1nc2c(N)nnc(C3=CCOC3)c2n1Cc1ccc(OC)cc1` [Compound 73, 2-butyl-7-(2,5-dihydrofuran-3-yl)-1-(4-methoxybenzyl)-1H-imidazo[4,5-d]pyridazin-4-amine] are over 20000 nM and 10100 nM.
Take `CCCCCCC(=O)NCc1ccc(Cn2c(CCCC)nc3c(N)nnc(OC(C)C)c32)cc1` [Compound 84, N-(4-((4-amino-2-butyl-7-isopropoxy-1H-imidazo[4,5-d]pyridazin-1-yl)methyl)benzyl)heptanamide]: the EC50 amounted to 1810 nM at human TLR8 and 263 nM on human TLR7.
Taken in the same sequence, the figures for `CCCCc1nc2c(N)nnc(OC(C)C)c2n1CCCCNC1CCOCC1` [Compound 150, 2-butyl-4-isopropoxy-3-[4-(tetrahydropyran-4-ylamino)butyl]imidazo[4,5-d]pyridazin-7-amine hydrochloride salt] were 11400 nM and 2210 nM.
The corresponding values for `CCCCc1nc2c(N)nnc(CCC(C)C)c2n1C[C@H]1CC[C@H](N)CC1` [Compound 140, 1-(((1R,4R)-4-aminocyclohexyl)methyl)-2-butyl-7-isopentyl-1H-imidazo[4,5-d]pyridazin-4-amine] are over 20000 nM and 1310 nM.
Taken in the same sequence, the figures for `CCCCc1nc2c(N)nnc(OC(C)C)c2n1Cc1ccc(CNC(=O)OCc2ccc(NC(C)=O)cc2)cc1` [Compound 114, 4-acetamidobenzyl (4-((4-amino-2-butyl-7-isopropoxy-1H-imidazo[4,5-d]pyridazin-1-yl)methyl)benzyl)carbamate] were over 6340 nM and 163 nM.
On to `CCCCc1nc2c(N)nnc(OC(C)C)c2n1C[C@H]1CCC[C@H](N)C1` (racemic) [Compound 32, 1-(((1S,3S)-3-aminocyclohexyl)methyl)-2-butyl-7-isopropoxy-1H-imidazo[4,5-]pyridazin-4-amine], for which the results for the EC50 on human TLR8 and at human TLR7 were 709 nM and 598 nM, respectively.
The corresponding values for `CCCCc1nc2c(N)nnc(C=C(C)C)c2n1Cc1ccc(OC)cc1` [Compound 60, 2-butyl-1-(4-methoxybenzyl)-7-(2-methylprop-1-en-1-yl)-1H-imidazo[4,5-d]pyridazin-4-amine] are over 20000 nM and 813 nM.
The corresponding values for `CCCCc1nc2c(N)nnc(OC(C)C)c2n1Cc1ccc(CNC(=O)OCc2ccc(OC)cc2)cc1` [Compound 112, 4-methoxybenzyl (4-((4-amino-2-butyl-7-isopropoxy-1H-imidazo[4,5-d]pyridazin-1-yl)methyl)benzyl)carbamate] are over 20000 nM and 248 nM.
For the molecule `CCCCc1nc2c(N)nncc2n1Cc1ccc(OC)cc1` [Compound 95, 2-butyl-1-(4-methoxybenzyl)-1H-imidazo[4,5-d]pyridazin-4-amine], the activation at 20 µM at human TLR8 was 20.5%; at human TLR7, 15%.
